{"source": "paper PMC12362796", "about": "“Bilirubin Targeting WNK1 to Alleviate NLRP3‐Mediated Neuroinflammation” (Advanced Science, 2025)", "key": {"[1]": {"biological_target": "MRGPRs", "parameters": "method as in PMID 37390966, PMID 30657454", "details": "peripheral sensory neurons; cited from earlier work"}, "[2]": {"biological_target": "T1, WNK1 (491–2382) (Homo sapiens, UniProt Q9H4A3)", "T1 construct": "different lengths of WNK1 truncations (1–491, 1–190, 191–491, 491–2382); expressed in transfected cells; host or cells: HEK293T", "T1 sequence (Q9H4A3 491-2382)": "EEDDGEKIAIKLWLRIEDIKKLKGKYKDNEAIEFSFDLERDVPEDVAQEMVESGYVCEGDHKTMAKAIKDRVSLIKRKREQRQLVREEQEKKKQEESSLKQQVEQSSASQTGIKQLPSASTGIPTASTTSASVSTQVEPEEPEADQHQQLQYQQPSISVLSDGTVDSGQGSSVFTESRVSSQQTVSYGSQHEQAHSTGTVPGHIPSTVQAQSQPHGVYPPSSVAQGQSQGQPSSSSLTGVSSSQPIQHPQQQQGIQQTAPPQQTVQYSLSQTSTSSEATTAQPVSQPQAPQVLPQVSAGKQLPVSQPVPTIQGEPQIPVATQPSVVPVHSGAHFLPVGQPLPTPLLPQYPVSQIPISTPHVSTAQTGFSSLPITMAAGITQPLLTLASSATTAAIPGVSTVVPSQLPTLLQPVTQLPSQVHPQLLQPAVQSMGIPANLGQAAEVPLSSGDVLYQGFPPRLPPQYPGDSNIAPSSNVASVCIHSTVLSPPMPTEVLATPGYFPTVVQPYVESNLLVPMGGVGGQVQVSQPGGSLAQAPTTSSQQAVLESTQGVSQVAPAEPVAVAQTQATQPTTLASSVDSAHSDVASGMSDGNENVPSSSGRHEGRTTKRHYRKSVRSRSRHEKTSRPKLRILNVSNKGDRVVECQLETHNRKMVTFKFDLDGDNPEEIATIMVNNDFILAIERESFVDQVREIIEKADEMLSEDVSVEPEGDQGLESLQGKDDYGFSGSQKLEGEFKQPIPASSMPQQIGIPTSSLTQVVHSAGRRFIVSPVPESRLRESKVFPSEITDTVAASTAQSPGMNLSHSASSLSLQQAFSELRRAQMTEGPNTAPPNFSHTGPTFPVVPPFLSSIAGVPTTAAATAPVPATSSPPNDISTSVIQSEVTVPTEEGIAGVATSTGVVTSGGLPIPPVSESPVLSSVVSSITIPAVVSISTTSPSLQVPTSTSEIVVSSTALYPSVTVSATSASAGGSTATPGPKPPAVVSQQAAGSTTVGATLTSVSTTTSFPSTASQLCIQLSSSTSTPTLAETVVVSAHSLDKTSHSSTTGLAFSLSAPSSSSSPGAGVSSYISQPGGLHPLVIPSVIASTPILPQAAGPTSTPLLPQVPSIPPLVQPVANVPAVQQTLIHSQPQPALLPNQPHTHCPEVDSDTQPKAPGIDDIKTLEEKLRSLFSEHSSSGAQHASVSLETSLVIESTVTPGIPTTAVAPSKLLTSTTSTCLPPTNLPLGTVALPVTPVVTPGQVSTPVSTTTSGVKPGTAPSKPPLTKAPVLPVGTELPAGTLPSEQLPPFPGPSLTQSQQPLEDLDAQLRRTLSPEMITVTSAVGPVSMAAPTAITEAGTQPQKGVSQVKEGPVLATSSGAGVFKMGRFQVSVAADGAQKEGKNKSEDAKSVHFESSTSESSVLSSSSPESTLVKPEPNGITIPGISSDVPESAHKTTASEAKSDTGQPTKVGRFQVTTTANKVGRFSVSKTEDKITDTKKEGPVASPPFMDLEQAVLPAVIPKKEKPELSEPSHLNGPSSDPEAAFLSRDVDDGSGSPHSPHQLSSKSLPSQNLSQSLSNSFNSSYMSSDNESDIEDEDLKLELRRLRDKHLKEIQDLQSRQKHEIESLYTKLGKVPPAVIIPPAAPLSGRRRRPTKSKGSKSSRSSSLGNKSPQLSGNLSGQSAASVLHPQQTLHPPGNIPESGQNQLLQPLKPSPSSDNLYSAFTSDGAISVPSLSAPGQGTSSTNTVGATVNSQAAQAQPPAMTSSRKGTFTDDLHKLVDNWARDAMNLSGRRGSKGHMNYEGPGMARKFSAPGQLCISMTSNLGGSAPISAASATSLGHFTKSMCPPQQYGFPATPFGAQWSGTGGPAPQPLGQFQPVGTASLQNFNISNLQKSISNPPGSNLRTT", "assay": "MST, EGFP-tagged WNK1 truncation 491–2382", "type": "binding", "details": "WNK1 491–2382 (non-kinase segment), 15 min, HEK293T lysates", "source_text": "To further validate these findings, we constructed GFP‐tagged fusion proteins with different lengths of WNK1 truncations (1–491, 1–190, 191–491, 491–2382) based on the WNK1 domains (Figure 3E) and analyzed their binding capacity with bilirubin using MST analysis.^[ [29] ^]\nAll WNK1 clones were derived from the original untagged hWNK1 cDNA (NM_018979), which was modified and subcloned into the pcDNA3.1, referred to as “full‐length WNK1” throughout this study. Truncated constructs, including 1–190aa, 191–491aa, 1–491aa, and 491–2382aa fragments, were generated by PCR using the full‐length template and subsequently ligated into linearized pcDNA3.1 vectors. WNK2 was obtained from Addgene Plasmid #24569, and WNK3 was obtained from Addgene Plasmid #81723. Both were subjected to base modifications and cloned into pcDNA3.1. The WNK4 clone was derived from hWNK4 cDNA (NM_032387.5), modified, and subcloned into the pCMV3‐C‐GFPSpark vector.\nIn HEK293T cells, proteins tagged with green fluorescent protein (GFP) were expressed. The cells were lysed using the M‐PER Mammalian Protein Extraction Reagent (cat. no. 78505, Thermo Scientific) supplemented with protease inhibitors. Lysates were centrifuged at 12000 × g for 15 min at 4 °C, and the supernatant containing proteins was diluted 10‐fold with 1x PBST. […]"}, "[3]": {"system": "HEK 293T cell line", "assay": "MQAE intracellular chloride measurement in HEK 293T cell line", "type": "cell-based, human", "details": "lacking KCC2 expression", "source_text": "Since bilirubin‐induced activation of WNK1 kinase activity increases [Cl⁻]i in neurons, we sought to elucidate the downstream effector proteins of WNK1 that are involved in this process. Neuronal [Cl⁻]i is primarily regulated by the Cl⁻‐K⁺ symporter KCC2, with additional modulation by factors such as the Na⁺‐K⁺‐Cl⁻ co‐transporter NKCC1, GABAA receptors, and glycine receptors (GlyR), all of which contribute to [Cl⁻]i homeostasis.^[ [31] ^] To investigate the mechanism underlying bilirubin‐induced changes in [Cl⁻]i, we selectively targeted these proteins using pharmacological inhibitors (VU0463271 for KCC2, bumetanide for NKCC1, bicuculline for GABAA receptors, and strychnine for GlyR) and activated KCC2 using CLP257.^[ [35], [36] ^] […] The bilirubin‐induced effect on [Cl⁻]i was not observed in primary astrocytes (Figure S15A,B, Supporting Information) or the HEK 293T cell line (Figure S15C, Supporting Information), both of which lacked KCC2 expression (Figure S16A,B, Supporting Information), further confirming that the effects of bilirubin and WNK1 on [Cl⁻]i elevation are dependent on KCC2.\nIntracellular chloride concentration ([Cl⁻]i) was measured using the MQAE fluorescent dye (Life Technologies) following established protocols (Zhang, Lee et al. 2015). […]"}, "[4]": {"biological_target": "T2, WNK1 (Homo sapiens, UniProt Q9H4A3)", "T2 construct": "endogenous in cells; host or cells: SH-SY5Y", "T2 sequence (Q9H4A3 whole entry)": "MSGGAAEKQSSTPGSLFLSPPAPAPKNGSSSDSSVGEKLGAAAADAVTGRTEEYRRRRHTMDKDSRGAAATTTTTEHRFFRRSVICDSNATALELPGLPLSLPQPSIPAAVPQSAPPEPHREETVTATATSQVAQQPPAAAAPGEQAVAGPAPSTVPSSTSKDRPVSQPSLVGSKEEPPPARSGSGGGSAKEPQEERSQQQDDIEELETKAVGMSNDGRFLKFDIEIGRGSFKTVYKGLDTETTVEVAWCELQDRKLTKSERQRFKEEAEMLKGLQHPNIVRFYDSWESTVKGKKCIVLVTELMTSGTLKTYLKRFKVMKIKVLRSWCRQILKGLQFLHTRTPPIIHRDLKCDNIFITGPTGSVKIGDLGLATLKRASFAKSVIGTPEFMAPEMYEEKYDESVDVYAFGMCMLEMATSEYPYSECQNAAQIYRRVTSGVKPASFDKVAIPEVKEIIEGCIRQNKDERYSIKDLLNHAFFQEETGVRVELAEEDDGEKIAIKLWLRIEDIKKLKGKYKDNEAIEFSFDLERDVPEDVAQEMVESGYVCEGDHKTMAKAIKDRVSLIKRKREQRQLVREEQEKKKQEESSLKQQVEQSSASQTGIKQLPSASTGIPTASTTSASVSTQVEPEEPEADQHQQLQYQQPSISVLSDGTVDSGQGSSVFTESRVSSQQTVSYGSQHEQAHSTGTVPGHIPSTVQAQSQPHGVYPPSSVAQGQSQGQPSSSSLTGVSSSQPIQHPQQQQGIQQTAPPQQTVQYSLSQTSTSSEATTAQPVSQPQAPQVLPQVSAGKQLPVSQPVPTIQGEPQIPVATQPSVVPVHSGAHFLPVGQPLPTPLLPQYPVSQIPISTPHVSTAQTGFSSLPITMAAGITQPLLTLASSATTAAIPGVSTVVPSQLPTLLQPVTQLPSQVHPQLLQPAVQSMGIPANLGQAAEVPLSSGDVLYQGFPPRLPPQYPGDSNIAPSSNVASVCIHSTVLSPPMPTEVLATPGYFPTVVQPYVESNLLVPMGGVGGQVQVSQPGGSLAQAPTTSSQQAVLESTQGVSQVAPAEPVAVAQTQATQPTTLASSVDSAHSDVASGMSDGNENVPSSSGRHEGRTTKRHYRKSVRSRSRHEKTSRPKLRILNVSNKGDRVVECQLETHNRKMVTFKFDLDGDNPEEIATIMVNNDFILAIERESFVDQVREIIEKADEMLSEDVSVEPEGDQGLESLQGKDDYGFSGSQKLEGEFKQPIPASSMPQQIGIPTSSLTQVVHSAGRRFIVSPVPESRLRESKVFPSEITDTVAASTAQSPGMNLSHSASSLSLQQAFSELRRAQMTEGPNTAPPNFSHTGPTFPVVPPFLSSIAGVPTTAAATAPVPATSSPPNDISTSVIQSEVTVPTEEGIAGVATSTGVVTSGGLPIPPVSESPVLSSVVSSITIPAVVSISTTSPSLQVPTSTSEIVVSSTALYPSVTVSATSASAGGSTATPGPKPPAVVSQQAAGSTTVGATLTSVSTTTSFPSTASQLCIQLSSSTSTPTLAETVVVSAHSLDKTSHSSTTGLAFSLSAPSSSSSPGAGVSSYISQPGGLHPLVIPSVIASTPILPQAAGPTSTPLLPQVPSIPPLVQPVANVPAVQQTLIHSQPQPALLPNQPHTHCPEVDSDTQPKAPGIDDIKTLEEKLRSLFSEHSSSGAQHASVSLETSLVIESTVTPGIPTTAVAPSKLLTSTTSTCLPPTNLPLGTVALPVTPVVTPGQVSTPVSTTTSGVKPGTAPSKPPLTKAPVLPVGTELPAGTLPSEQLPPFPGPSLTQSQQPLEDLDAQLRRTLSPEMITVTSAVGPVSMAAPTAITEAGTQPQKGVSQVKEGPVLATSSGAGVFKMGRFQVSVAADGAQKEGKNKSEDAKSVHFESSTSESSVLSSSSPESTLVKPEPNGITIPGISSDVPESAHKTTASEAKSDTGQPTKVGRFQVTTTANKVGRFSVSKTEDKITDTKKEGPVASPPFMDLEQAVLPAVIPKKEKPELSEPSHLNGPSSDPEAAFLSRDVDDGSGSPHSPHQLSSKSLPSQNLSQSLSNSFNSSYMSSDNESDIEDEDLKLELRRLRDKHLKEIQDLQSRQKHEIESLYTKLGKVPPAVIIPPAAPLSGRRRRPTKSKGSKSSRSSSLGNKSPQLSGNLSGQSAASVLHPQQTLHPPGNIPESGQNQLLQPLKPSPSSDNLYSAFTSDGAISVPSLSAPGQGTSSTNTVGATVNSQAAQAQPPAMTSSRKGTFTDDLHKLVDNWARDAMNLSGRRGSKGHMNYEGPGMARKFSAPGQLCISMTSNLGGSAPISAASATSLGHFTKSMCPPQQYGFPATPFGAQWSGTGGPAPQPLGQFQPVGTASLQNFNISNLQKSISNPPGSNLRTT", "assay": "CETSA-Western blotting in SH-SY5Y cells", "type": "cell-based", "details": "6 µM in serum-free medium vs DMSO, denaturation at different temperatures, soluble fraction", "procedure": "(§1) To validate these findings, SH‐SY5Y cells were incubated in a serum‐free medium with bilirubin (6 µM) or an equivalent amount of DMSO as the control, followed by protein denaturation at different temperatures (Figure 1A).\n(§2) Cells or tissues were lysed by grinding in RIPA buffer (cat. no. PC101; Epizyme Biotech) supplemented with a protease inhibitor cocktail (cat. no. 5872S; Cell Signaling Technology) at 4 °C. The lysate was subsequently centrifuged at 16000 × g for 30 min at 4 °C and the resulting supernatant was collected. The total protein concentration was determined using the Pierce BCA Protein Assay Kit (cat. no. 23 225, Thermo Fisher Scientific). The samples were denatured in a Protein Sample Loading Buffer (cat. no. LT101; Epizyme Biotech) at 95 °C and subjected to SDS‐polyacrylamide gel electrophoresis. Following electrophoresis, the proteins were transferred onto a nitrocellulose membrane (cat. no. HATF00010; Millipore) using a transfer buffer composed of 25 mM Tris, 190 mM glycine, and 20% methanol. Membranes were blocked with blocking buffer for western blotting (cat. no. P0252; Beyotime Biotechnology) at room temperature for 15 min, followed by overnight incubation with the primary antibody at 4 °C. After primary antibody incubation, the membranes were washed and incubated with secondary antibody at room temperature for 1 h. […]"}, "[5]": {"system": "WNK1 phosphorylation at Thr58", "assay": "Western blotting of WNK1 phosphorylation in cochlear nucleus", "type": "cell-based", "details": "mouse cochlear nuclei, 30 min", "procedure": "as §1\nC57BL/6 mice at postnatal day 10 (P10) were euthanized on ice, and their cochlear nuclei were dissected and incubated in artificial cerebrospinal fluid (ACSF), with or without 3 µM bilirubin, followed by rapid freezing in liquid nitrogen. The ACSF composition was 124 mM NaCl, 5 mM KCl, 1.2 mM KH2PO4, 1.3 mM MgCl2, 2.4 mM CaCl2, 24 mM NaHCO3, and 10 mM glucose (pH 7.4).\nas §2, with “methanol.” for “methanol. Membranes were blocked with blocking buffer for western blotting (cat. no. P0252; Beyotime Biotechnology) at room temperature for 15 min, followed by overnight incubation with the primary antibody at 4 °C. After primary antibody incubation, the membranes were washed and incubated with secondary antibody at room temperature for 1 h.”"}, "[6]": {"system": "FABP1", "parameters": "method as in PMID 37390966, PMID 34067839", "details": "cited from earlier work"}}, "note": "pKd: −log10 of the molar value.", "data": [{"smiles": "C=CC1=C(C)/C(=C/c2[nH]c(Cc3[nH]c(/C=C4\\NC(=O)C(C)=C4C=C)c(C)c3CCC(=O)O)c(CCC(=O)O)c2C)NC1=O", "note": "[bilirubin, Bilirubin]", "values": [{"measurement": "pKd", "setting": "[1]", "value": "4.03 to 4.26"}, {"measurement": "pKd", "setting": "[2]", "value": 5.50}, {"measurement": "bilirubin-induced effect on [Cl−]i", "setting": "[3]", "value": "not observed"}, {"measurement": "thermal stability of WNK1", "setting": "[4]", "value": "enhanced thermal stability"}, {"measurement": "WNK1 phosphorylation at Thr58 (Thr60 in humans)", "setting": "[5]", "value": "substantial reduction"}, {"measurement": "concentrations at which FABP1 binds bilirubin", "setting": "[6]", "value": "1 to 4", "unit": "µM"}]}]}
